{"source": "patent US20080033026A1", "about": "“Antimicrobial compositions, methods and systems” (priority 2006, published 2008)", "key": {"[1]": {"tested_on": "Listeria monocytogenes (ATCC 19111)", "assay": "Preservative effectiveness on food pathogens (US Pharmacopoeia 23)", "format": "cell-based", "procedure": "(§1) The effectiveness of 9-decenoic acid on food pathogens was determined using the protocol on preservative effectiveness found in the US Pharmacopoeia 23, 1995.\n(§2) Stock cultures of the Listeria monocytogenes (ATCC 1911-1), Salmonella enteritidis (ATCC 13076) and Campylobacter jejuni (ATCC 29428) were transferred for at least three consecutives days on Trypticase Soy Agar (TSA) and incubated at 30-35° C. for 18-24 hours. On the day of the test, the cells were washed from the agar surface with sterile saline containing 0.05% w/v Polysorbate 80 (SS+) and the suspension was centrifuged at 2000 rpm for 15 minutes and resuspended in SS+. The suspension was diluted to approximately 10^8 CFU/ml.\n(§3) The 9-decenoic acid was diluted in the same manner as previously described to achieve concentrations of 0.25%, 0.125%, 0.0625%, 0.03%, 0.015%, 0.0078% and 0.0039%. The samples were dispensed in 20 ml aliquots in sterile test tubes. For each concentration tested, a 0.1 ml aliquot of each inoculum was added to a final concentration of 10^5 to 10^6 CFU/ml. The tubes were incubated at room temperature and sampled on days 0, 1, 2, 4, 7, 14, 21 and 28.\n(§4) At each sample point, 1.0 ml aliquots were withdrawn, serially diluted and plated in triplicate on TSA. The plates were incubated at 30-35° C. for 2-4 days. The colonies were counted and the average CFU/ml was calculated. Controls for purity, viability and sterility were performed as described previously.\n(§5) According to the US Pharmacopoeia, a test compound is an effective preservative if the concentrations of viable bacteria remain at or below the initial concentrations during the first fourteen days and after 28 days.\n(§6) Additionally, test organisms in Tables 9-11 were exposed to the 9-decenoic acid for several minutes before analysis at Day 0. As shown in the Tables 9-11, significant biocidal activity was observed even within this short time period for the test organisms, illustrating the effectiveness of 9-decenoic acid as a biocidal agent."}, "[2]": {"tested_on": "Salmonella enteritidis (ATCC 13076)", "assay": "Preservative effectiveness on food pathogens (US Pharmacopoeia 23)", "format": "cell-based", "procedure": "as §1, §2, §3, §4, §5, §6"}, "[3]": {"settings": "0.0078% 9-decenoic acid, exposure day 0"}, "[4]": {"settings": "0.0078% 9-decenoic acid, exposure day 1"}, "[5]": {"settings": "0.0078% 9-decenoic acid, exposure day 2"}, "[6]": {"settings": "0.0078% 9-decenoic acid, exposure day 4"}, "[7]": {"settings": "0.0078% 9-decenoic acid, exposure day 7"}, "[8]": {"settings": "0.0078% 9-decenoic acid, exposure day 14"}, "[9]": {"settings": "0.0078% 9-decenoic acid, exposure day 21"}, "[10]": {"settings": "0.0078% 9-decenoic acid, exposure day 28"}, "[11]": {"settings": "0.015% 9-decenoic acid, exposure day 0"}, "[12]": {"settings": "0.015% 9-decenoic acid, exposure day 1"}, "[13]": {"settings": "0.015% 9-decenoic acid, exposure day 2"}, "[14]": {"settings": "0.015% 9-decenoic acid, exposure day 4"}, "[15]": {"settings": "0.015% 9-decenoic acid, exposure day 7"}, "[16]": {"settings": "0.015% 9-decenoic acid, exposure day 14"}, "[17]": {"settings": "0.015% 9-decenoic acid, exposure day 21"}, "[18]": {"settings": "0.015% 9-decenoic acid, exposure day 28"}, "[19]": {"settings": "0.03% 9-decenoic acid, exposure day 0"}, "[20]": {"settings": "0.03% 9-decenoic acid, exposure day 1"}, "[21]": {"settings": "0.03% 9-decenoic acid, exposure day 2"}, "[22]": {"settings": "0.03% 9-decenoic acid, exposure day 4"}, "[23]": {"settings": "0.03% 9-decenoic acid, exposure day 7"}, "[24]": {"settings": "0.03% 9-decenoic acid, exposure day 14"}, "[25]": {"settings": "0.03% 9-decenoic acid, exposure day 21"}, "[26]": {"settings": "0.03% 9-decenoic acid, exposure day 28"}, "[27]": {"settings": "US Pharmacopoeia definition, 28 days"}}}
{"smiles": "C=CCCCCCCCC(=O)O", "note": "[9-decenoic acid]", "values": [{"measurement": "Log reduction", "setting": "[1]; [3]", "result": 1.0, "unit": "log"}, {"measurement": "Log reduction", "setting": "[1]; [4]", "result": 5.1, "unit": "log"}, {"measurement": "Log reduction", "setting": "[1]; [5]", "result": 5.1, "unit": "log"}, {"measurement": "Log reduction", "setting": "[1]; [6]", "result": 5.1, "unit": "log"}, {"measurement": "Log reduction", "setting": "[1]; [7]", "result": 5.1, "unit": "log"}, {"measurement": "Log reduction", "setting": "[1]; [8]", "result": 5.1, "unit": "log"}, {"measurement": "Log reduction", "setting": "[1]; [9]", "result": 5.1, "unit": "log"}, {"measurement": "Log reduction", "setting": "[1]; [10]", "result": 5.1, "unit": "log"}, {"measurement": "Log reduction", "setting": "[1]; [11]", "result": 5.1, "unit": "log"}, {"measurement": "Log reduction", "setting": "[1]; [12]", "result": 5.1, "unit": "log"}, {"measurement": "Log reduction", "setting": "[1]; [13]", "result": 5.1, "unit": "log"}, {"measurement": "Log reduction", "setting": "[1]; [14]", "result": 5.1, "unit": "log"}, {"measurement": "Log reduction", "setting": "[1]; [15]", "result": 5.1, "unit": "log"}, {"measurement": "Log reduction", "setting": "[1]; [16]", "result": 5.1, "unit": "log"}, {"measurement": "Log reduction", "setting": "[1]; [17]", "result": 5.1, "unit": "log"}, {"measurement": "Log reduction", "setting": "[1]; [18]", "result": 5.1, "unit": "log"}, {"measurement": "Log reduction", "setting": "[1]; [19]", "result": 5.1, "unit": "log"}, {"measurement": "Log reduction", "setting": "[1]; [20]", "result": 5.1, "unit": "log"}, {"measurement": "Log reduction", "setting": "[1]; [21]", "result": 5.1, "unit": "log"}, {"measurement": "Log reduction", "setting": "[1]; [22]", "result": 5.1, "unit": "log"}, {"measurement": "Log reduction", "setting": "[1]; [23]", "result": 5.1, "unit": "log"}, {"measurement": "Log reduction", "setting": "[1]; [24]", "result": 5.1, "unit": "log"}, {"measurement": "Log reduction", "setting": "[1]; [25]", "result": 5.1, "unit": "log"}, {"measurement": "Log reduction", "setting": "[1]; [26]", "result": 5.1, "unit": "log"}, {"measurement": "Concentration at which effective preservative", "setting": "[1]; [27]", "result": "≤ 0.0078", "unit": "%"}, {"measurement": "Exposure time at which bactericidal", "setting": "[1]; at 0.0078%", "result": 1, "unit": "days"}, {"measurement": "Exposure time at which bactericidal", "setting": "[1]; at 150 ppm", "result": 0, "unit": "days"}, {"measurement": "Log reduction", "setting": "[2]; [3]", "result": 0.53, "unit": "log"}, {"measurement": "Log reduction", "setting": "[2]; [4]", "result": 3.2, "unit": "log"}, {"measurement": "Log reduction", "setting": "[2]; [5]", "result": 4.1, "unit": "log"}, {"measurement": "Log reduction", "setting": "[2]; [6]", "result": 4.0, "unit": "log"}, {"measurement": "Log reduction", "setting": "[2]; [7]", "result": 5.1, "unit": "log"}, {"measurement": "Log reduction", "setting": "[2]; [8]", "result": 5.1, "unit": "log"}, {"measurement": "Log reduction", "setting": "[2]; [9]", "result": 5.1, "unit": "log"}, {"measurement": "Log reduction", "setting": "[2]; [10]", "result": 5.1, "unit": "log"}, {"measurement": "Log reduction", "setting": "[2]; [11]", "result": 5.1, "unit": "log"}, {"measurement": "Log reduction", "setting": "[2]; [12]", "result": 5.1, "unit": "log"}, {"measurement": "Log reduction", "setting": "[2]; [13]", "result": 5.1, "unit": "log"}, {"measurement": "Log reduction", "setting": "[2]; [14]", "result": 5.1, "unit": "log"}, {"measurement": "Log reduction", "setting": "[2]; [15]", "result": 5.1, "unit": "log"}, {"measurement": "Log reduction", "setting": "[2]; [16]", "result": 5.1, "unit": "log"}, {"measurement": "Log reduction", "setting": "[2]; [17]", "result": 5.1, "unit": "log"}, {"measurement": "Log reduction", "setting": "[2]; [18]", "result": 5.1, "unit": "log"}, {"measurement": "Log reduction", "setting": "[2]; [19]", "result": 5.1, "unit": "log"}, {"measurement": "Log reduction", "setting": "[2]; [20]", "result": 5.1, "unit": "log"}, {"measurement": "Log reduction", "setting": "[2]; [21]", "result": 5.1, "unit": "log"}, {"measurement": "Log reduction", "setting": "[2]; [22]", "result": 5.1, "unit": "log"}, {"measurement": "Log reduction", "setting": "[2]; [23]", "result": 5.1, "unit": "log"}, {"measurement": "Log reduction", "setting": "[2]; [24]", "result": 5.1, "unit": "log"}, {"measurement": "Log reduction", "setting": "[2]; [25]", "result": 5.1, "unit": "log"}, {"measurement": "Log reduction", "setting": "[2]; [26]", "result": 5.1, "unit": "log"}, {"measurement": "Concentration at which effective preservative", "setting": "[2]; [27]", "result": "≤ 0.0078", "unit": "%"}, {"measurement": "Exposure time at which bactericidal", "setting": "[2]; at 0.0078%", "result": 7, "unit": "days"}, {"measurement": "Exposure time at which bactericidal", "setting": "[2]; at 0.015%", "result": 0, "unit": "days"}]}
